{"source": "patent US20220167645A1", "about": "“METHODS OF IMPROVING FISH FEED CONVERSION RATE AND SURVIVAL” (AQUINOVO LTD., priority 2019, published 2022)", "assay_type_in_all_cases": "in vivo", "key": {"Tilapia fish [1]": {"test_system": "Tilapia fish", "assay": "Experiment #1: tilapia fed AN6-coated feed in two phases (growth, biomass, mortality, FCR)", "procedure": "MeM (powder, manufactured by Bern Aqua), Nanolis P1, P2 (pellet sizes of 0.8-1 mm, 1-1.5 mm, respectively, manufactured by Ocialis) and Tilaphi 1, 2 & 3 (pellet sizes of 1-1.5 mm, 2 mm, 3-5.5 mm, respectively, manufactured by Ocialis) were used as basic regular feed. The basic feed was coated according to the following general procedure: 9 ml or 3 ml of Tris-HCl solution (50 mM, pH=8.8) were diluted to 60 ml with distilled H2O. For AN6-containing feed preparation, desired amounts of AN6 peptide (a TK antagonist having the sequence Succ-Asp-Ser-D-Trp—N(Me)Val-βAla-Leu-Met-NH2, SEQ ID NO. 6) were dissolved in the Tris-HCl solution. Then, each of the various solutions was mixed with 3 Kg of basic feed pellets using an electric mixer. The peptide-feed mixtures where then dried either in oven at 40° C. for 24 hours or in drying drum for few hours to form coated pellets. The total amount of each feed was 3 Kg.\nTilapia fish (n=3600) have been raised from age 10 to 106 days post-hatch (dph) in indoor tanks kept under artificial lightening (12 h light; 12 h dark), and then transferred to cages in ponds for 160 days (total 8-9 months). The fish were fed to apparent satiation 2-4 times a day, for about 90 days (10-106 dph, Phase 1), either with regular feed (Feed A, Group A, n=600 in 3 repeats) or with feed coated with AN6 peptide solution in a ratio of 10 mg AN6/Kg feed (10 ppm, Feed C, Group B, n=600 in 3 repeats). In the second phase, fish in group B were fed for 50 days (207-257 dph, Phase 2) with feed coated with AN6 peptide solution, in a ratio of 30 mg AN6/Kg feed (30 ppm, Feed D, Group B). Between days 107 and 206 the fish received control feed (feed A).\nDuring the experiment period, the average fish weight was measured, and the daily growth rate was calculated by dividing the average weight gained in each measuring period by the number of days since the last measurement. […] This effect was also evident in the daily growth rate (FIG. 1, experiment #1). The relatively low growth rate measured in the initial phase of this experiment probably stemmed from high stocking density in tanks system in the initial period (Phase 1, Table 2, until day 106 post-hatch). This growth restriction was fully compensated in the larger cages in ponds (178 dph) where stocking density was much lower (from 106 dph, <10 Kg fish/m3).\nDuring the experiments described above, dead fish were removed from tanks before each feeding, and then counted and weighed. Dead fish were not replaced after the beginning of the experiment. In the cage systems, in which dead fish are undetectable, actual mortality was estimated by the difference between initial and final count.\nDuring the experiment described in example 2 (experiment #1), the fish were exposed to high stocking densities in indoor tanks (13-130 kg/m^3, 83-106 dph, Table 2, FIG. 7). High stocking density is known as a major fish stressor resulting, inter alia, in chronic increase in Cortisol levels, reduced growth, changes in behavior and inhibition of immune performance. Although mortality in these tanks was not high, a significant increase in mortality was observed following fish transfer to the pond (FIG. 7, 17.5%±2.4 mortality, x±SE).\nIn order to determine the efficiency of feed conversion into fish substance in experiments (#1, #2, #3), FCR values which reflect the amount of feed needed to grow a kilogram fish, were calculated for each period and for the entire fish growth period. In order to determine the amount of consumed feed, the amount of feed provided was measured daily for each tank and the leftovers were collected, weighted and subtracted from the total amount of feed. Dead fish were removed every day before each feeding and then counted and weighed for accurate calculation of feed intake and FCR. […]"}, "[2]": {"test_system": "TK receptors (tac1, tac2, tac3)", "assay": "TK receptor mRNA expression following AN6 treatment", "details": "different parts of the gut and skin"}, "Tilapia fish [3]": {"test_system": "Tilapia fish", "text": "At the end of each of the experiments described in examples 2, 3 and 5 (#1, #2, #3), a sample of fish from each treatment group was sacrificed and dissected for measurements of internal parts as indicated in Table 9."}, "[4]": {"details": "10 mg AN6/Kg feed 10-106 dph, first 200 days of experiment, vs control"}, "[5]": {"details": "10 ppm AN6, experiments 2 & 3, vs control"}}, "note": "Several values for one entry are separate records, joined by “and”; a condition that tells them apart may be missing. Identical values can stand only once. Numbered stars: 1 amine (or outer) side, 2 acyl side, 3 side chain; on linkers, the order of the positions; unused ones are H or OH. Square brackets hold non-standard residues; d marks the D form. Suc = O=C(CCC(=O)[*:2])[*:1]; NMeV = CN[C@H](C(=O)O)C(C)C; βAla = NCCC(=O)O", "data": [{"substance": "Succ-Asp-Ser- D-Trp -N(Me)Val-βAla-Leu-Met-NH2 (Suc-DS[dW][NMeV][βAla]LM-NH2; SMILES CSCC[C@H](NC(=O)[C@H](CC(C)C)NC(=O)CCNC(=O)[C@H](C(C)C)N(C)C(=O)[C@@H](Cc1c[nH]c2ccccc12)NC(=O)[C@H](CO)NC(=O)[C@H](CC(=O)O)NC(=O)CCC(=O)O)C(N)=O) [AN6]", "values": [{"measurement": "daily growth rate", "setting": "Tilapia fish [1]; [4]", "value": "no differences"}, {"measurement": "fish average weight", "setting": "Tilapia fish [1]; [4]", "value": "no differences"}, {"measurement": "FCR and growth performance", "setting": "Tilapia fish [1]; 10 and 30 mg AN6/Kg feed (experiment #1)", "value": "both improved FCR and growth performance"}, {"measurement": "number of fish in the upper 6.5th decile", "setting": "Tilapia fish [1]; AN6 treatment group (control 6%)", "value": 12, "unit": "%"}, {"measurement": "number of fish in the lower 2th decile", "setting": "Tilapia fish [1]; AN6 treatment group (control 9%)", "value": 7, "unit": "%"}, {"measurement": "mortality following fish transfer to the pond (x±SE)", "setting": "Tilapia fish [1]; after high stocking density in tanks, control 17.5%±2.4, FIG. 7", "value": "10.5%±1.8"}, {"measurement": "increased total biomass", "setting": "Tilapia fish [1]; experiment #1, FIG. 3A, vs control", "value": "+18%"}, {"measurement": "reduction of fish mortality as compared to the control groups", "setting": "Tilapia fish [1]; in the pond, FIG. 7", "value": 8.5, "unit": "%"}, {"measurement": "weight gained normalized according to the initial body weight, difference compared to the control group", "setting": "Tilapia fish [1]; second phase of the experiment (FIG. 2A)", "value": "6% and 9%"}, {"measurement": "expression of all TK receptors (tac1, tac2, tac3)", "setting": "[2]", "value": "altered"}, {"measurement": "female fillet ratio", "setting": "Tilapia fish [3]; [5]", "value": "+3.38%"}, {"measurement": "male fillet ratio", "setting": "Tilapia fish [3]; [5]", "value": "+5.6%"}, {"measurement": "gonad size and histology", "setting": "Tilapia fish [3]; in vivo", "value": "No significant effect"}, {"measurement": "kidney, liver and fat weight and rates", "setting": "Tilapia fish [3]; in vivo", "value": "no effect"}]}]}
